Laboratory results taken from patent US20230072683A1, “PYRIDO-PYRIMIDIN DERIVATIVES AND PHARMACEUTICAL COMPOSITION, FOR USE IN PREVENTING OR TREATING PI3 KINASE RELATED DISEASES, COMPRISING SAME AS ACTIVE INGREDIENT” (BORYUNG PHARMACEUTICAL CO., LTD, priority 2019, published 2023).

Assays:
[1] = molecular target: PI3K-δ (PI3K(p1108/p857) (h)) (Homo sapiens, UniProt O00329); assay: Evaluation of inhibitory activity against PI3K-δ (HTRF kinase assay); format: biochemical; conditions: compound at 0.1 μM; read-out: EXP_VALUE(% Inhibition) PI3K-δ 0.1 μM
Procedure, shortened: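 HTRF read-out (665/620 nm ratio ×10000) used Eu-labelled anti-GST, GST-tagged GRP1 PH domain and streptavidin-allophycocyanin after EDTA/PIP3 stop.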

[2] = molecular target: DNA-PK(h) (Homo sapiens, UniProt P78527); assay: Evaluation of inhibitory activity against DNA-PK (HTRF kinase assay, GST-cMyc-p53 substrate); format: biochemical; conditions: compound at 0.1 μM; read-out: EXP_VALUE(% Inhibition) DNA-PK(h) 0.1 μM
Procedure, shortened: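 Human DNA-PK with 50 μM GST-cMyc-p53 substrate; reaction started with Mg/ATP, run 30 min at room temperature, stopped with EDTA. Phospho-Ser15 p53 detected by HTRF (Eu anti-phospho-Ser15, d2 anti-GST), signal = 10000×(Em 665/Em 620).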

Chain of PI3K-δ (PI3K(p1108/p857) (h)) (O00329 whole entry, the tested form may be a part): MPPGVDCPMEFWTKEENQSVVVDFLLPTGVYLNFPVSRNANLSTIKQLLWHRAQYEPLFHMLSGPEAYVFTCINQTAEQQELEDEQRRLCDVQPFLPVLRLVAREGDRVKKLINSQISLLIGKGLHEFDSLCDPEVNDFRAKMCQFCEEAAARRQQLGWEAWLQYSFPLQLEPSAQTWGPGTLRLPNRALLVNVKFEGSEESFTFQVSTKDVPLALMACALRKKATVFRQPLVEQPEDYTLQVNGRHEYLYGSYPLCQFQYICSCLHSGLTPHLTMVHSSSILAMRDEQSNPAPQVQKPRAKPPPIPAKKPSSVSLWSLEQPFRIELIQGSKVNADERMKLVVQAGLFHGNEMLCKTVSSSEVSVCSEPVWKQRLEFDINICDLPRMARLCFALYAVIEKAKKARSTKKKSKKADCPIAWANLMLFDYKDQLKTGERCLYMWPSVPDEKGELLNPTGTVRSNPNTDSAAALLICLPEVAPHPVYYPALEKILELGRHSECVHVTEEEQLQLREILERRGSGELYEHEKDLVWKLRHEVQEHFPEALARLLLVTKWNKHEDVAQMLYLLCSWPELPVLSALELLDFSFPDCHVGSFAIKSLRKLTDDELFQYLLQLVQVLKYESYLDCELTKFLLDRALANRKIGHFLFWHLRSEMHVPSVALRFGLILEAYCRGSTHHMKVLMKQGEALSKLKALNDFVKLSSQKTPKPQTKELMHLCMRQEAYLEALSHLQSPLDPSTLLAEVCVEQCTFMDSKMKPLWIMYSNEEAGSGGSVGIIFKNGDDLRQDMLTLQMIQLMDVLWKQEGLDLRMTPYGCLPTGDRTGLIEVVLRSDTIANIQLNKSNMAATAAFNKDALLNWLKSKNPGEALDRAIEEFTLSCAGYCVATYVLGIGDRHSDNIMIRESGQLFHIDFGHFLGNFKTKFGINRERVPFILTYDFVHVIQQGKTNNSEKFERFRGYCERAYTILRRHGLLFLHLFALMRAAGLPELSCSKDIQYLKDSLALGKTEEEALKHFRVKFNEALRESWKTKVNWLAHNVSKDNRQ
Chain of PI3K-δ (PI3K(p1108/p857) (h)) (P27986 whole entry partner, the tested form may be a part): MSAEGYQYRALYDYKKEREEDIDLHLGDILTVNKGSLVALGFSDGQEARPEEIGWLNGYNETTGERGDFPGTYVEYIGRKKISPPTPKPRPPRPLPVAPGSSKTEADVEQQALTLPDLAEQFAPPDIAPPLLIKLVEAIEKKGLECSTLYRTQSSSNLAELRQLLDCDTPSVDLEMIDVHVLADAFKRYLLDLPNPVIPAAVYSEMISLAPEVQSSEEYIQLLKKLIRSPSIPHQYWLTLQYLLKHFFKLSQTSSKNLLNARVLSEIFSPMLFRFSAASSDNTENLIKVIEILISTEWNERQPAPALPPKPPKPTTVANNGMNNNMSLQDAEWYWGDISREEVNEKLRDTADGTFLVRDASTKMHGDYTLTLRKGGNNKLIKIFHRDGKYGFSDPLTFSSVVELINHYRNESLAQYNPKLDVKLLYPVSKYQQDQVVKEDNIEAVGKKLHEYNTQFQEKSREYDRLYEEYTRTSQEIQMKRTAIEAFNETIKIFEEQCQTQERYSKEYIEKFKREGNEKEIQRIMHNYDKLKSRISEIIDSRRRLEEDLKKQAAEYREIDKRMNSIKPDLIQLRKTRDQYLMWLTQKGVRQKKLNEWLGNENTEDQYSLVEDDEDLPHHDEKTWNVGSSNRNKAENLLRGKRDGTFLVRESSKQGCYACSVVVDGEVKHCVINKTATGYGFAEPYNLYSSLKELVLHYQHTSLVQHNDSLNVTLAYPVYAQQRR

Compound | inhibition at 0.1 µM [1] | inhibition at 0.1 µM [2]
C[C@H](Nc1ncnc2[nH]ccc(=O)c12)c1c(Cl)c2cccc(S(=O)(=O)c3nc[nH]n3)c2c(=O)n1-c1ccccc1 [Example 401, (S)-4-((1-(8-((1H-1,2,4-triazol-3-yl)sulfonyl)-4-chloro-1-oxo-2-phenyl-1,2-dihydroisoquinolin-3-yl)ethyl)amino)pyrido[2,3-d]pyrimidin-5(8H)-one] | 42% | 24%
C[C@H](Nc1ncnc2[nH]ccc(=O)c12)c1c(Cl)c2cccc(-c3cnc(Cl)nc3)c2c(=O)n1-c1ccccc1 [Example 402, (S)-4-((1-(4-chloro-8-(2-chloropyrimidin-5-yl)-1-oxo-2-phenyl-1,2-dihydroisoquinolin-3-yl)ethyl)amino)pyrido[2,3-d]pyrimidin-5(8H)-one] | 71% | 16%
CC(=O)c1ncc(-c2cccc3c(Cl)c([C@H](C)Nc4ncnc5[nH]ccc(=O)c45)n(-c4ccccc4)c(=O)c23)cn1 [Example 403, (S)-4-((1-(8-(2-acetylpyrimidin-5-yl)-4-chloro-1-oxo-2-phenyl-1,2-dihydroisoquinolin-3-yl)ethyl)amino)pyrido[2,3-d]pyrimidin-5(8H)-one] | 80% | 46%
CCOC(C)(C)c1ncc(-c2cccc3c(Cl)c([C@H](C)Nc4ncnc5[nH]ccc(=O)c45)n(-c4ccccc4)c(=O)c23)cn1 [Example 404, (S)-4-((1-(4-chloro-8-(2-(2-ethoxypropan-2-yl)pyrimidin-5-yl)-1-oxo-2-phenyl-1,2-dihydroisoquinolin-3-yl)ethyl)amino)pyrido[2,3-d]pyrimidin-5(8H)-one] | 70% | 78%
COC(C)(C)c1ncc(-c2cccc3c(Cl)c([C@H](C)Nc4ncnc5[nH]ccc(=O)c45)n(-c4ccccc4)c(=O)c23)cn1 [Example 405, (S)-4-((1-(4-chloro-8-(2-(2-methoxypropan-2-yl)pyrimidin-5-yl)-1-oxo-2-phenyl-1,2-dihydroisoquinolin-3-yl)ethyl)amino)pyrido[2,3-d]pyrimidin-5(8H)-one] | 69% | 74%
CCCOC(C)(C)c1ncc(-c2cccc3c(Cl)c([C@H](C)Nc4ncnc5[nH]ccc(=O)c45)n(-c4ccccc4)c(=O)c23)cn1 [Example 406, (S)-4-((1-(4-chloro-1-oxo-2-phenyl-8-(2-(2-propoxypropan-2-yl)pyrimidin-5-yl)-1,2-dihydroisoquinolin-3-yl)ethyl)amino)pyrido[2,3-d]pyrimidin-5(8H)-one] | 72% | 71%
C[C@H](Nc1ncnc2[nH]ccc(=O)c12)c1c(Cl)c2cccc(-c3cnc(S(C)(=N)=O)nc3)c2c(=O)n1-c1ccccc1 (stereo partly drawn) [Example 407, 4-(((1S)-1-(4-chloro-8-(2-(S-methylsulfonimidoyl)pyrimidin-5-yl)-1-oxo-2-phenyl-1,2-dihydroisoquinolin-3-yl)ethyl)amino)pyrido[2,3-d]pyrimidin-5(8H)-one] | 67% | 70%
CCC[S@@](=N)(=O)c1cccc2c(Cl)c([C@H](C)Nc3ncnc4[nH]ccc(=O)c34)n(-c3ccccc3)c(=O)c12 [Example 408, 4-(((S)-1-(4-chloro-1-oxo-2-phenyl-8-((R)-propylsulfonimidoyl)-1,2-dihydroisoquinolin-3-yl)ethyl)amino)pyrido[2,3-d]pyrimidin-5(8H)-one] | 71% | 28%
CCC[S@](=N)(=O)c1cccc2c(Cl)c([C@H](C)Nc3ncnc4[nH]ccc(=O)c34)n(-c3ccccc3)c(=O)c12 [Example 409, 4-(((S)-1-(4-chloro-1-oxo-2-phenyl-8-((S)-propylsulfonimidoyl)-1,2-dihydroisoquinolin-3-yl)ethyl)amino)pyrido[2,3-d]pyrimidin-5(8H)-one] | 17% | 53%
CC(C)[S@@](=N)(=O)c1cccc2c(Cl)c([C@H](C)Nc3ncnc4[nH]ccc(=O)c34)n(-c3ccccc3)c(=O)c12 [Example 410, 4-(((S)-1-(4-chloro-1-oxo-2-phenyl-8-((R)-propan-2-ylsulfonimidoyl)-1,2-dihydroisoquinolin-3-yl)ethyl)amino)pyrido[2,3-d]pyrimidin-5(8H)-one] | 14% | 23%
CC(C)[S@](=N)(=O)c1cccc2c(Cl)c([C@H](C)Nc3ncnc4[nH]ccc(=O)c34)n(-c3ccccc3)c(=O)c12 [Example 411, 4-(((S)-1-(4-chloro-1-oxo-2-phenyl-8-((S)-propan-2-ylsulfonimidoyl)-1,2-dihydroisoquinolin-3-yl)ethyl)amino)pyrido[2,3-d]pyrimidin-5(8H)-one] | 4% | 37%

Next, values leading:

inhibition at 0.1 µM [1] | inhibition at 0.1 µM [2] | Compound
29% | 15% | C[C@H](Nc1ncnc2[nH]ccc(=O)c12)c1c(Cl)c2cccc(Sc3ccccn3)c2c(=O)n1-c1ccccc1 [Example 412, (S)-4-((1-(4-chloro-1-oxo-2-phenyl-8-(pyridin-2-ylthio)-1,2-dihydroisoquinolin-3-yl)ethyl)amino)pyrido[2,3-d]pyrimidin-5(8H)-one]
16% | 30% | C[C@H](Nc1ncnc2[nH]ccc(=O)c12)c1c(Cl)c2cccc([S+]([O-])c3ccccn3)c2c(=O)n1-c1ccccc1 (stereo partly drawn) [Example 413, 4-(((1S)-1-(4-chloro-1-oxo-2-phenyl-8-(pyridin-2-ylsulfinyl)-1,2-dihydroisoquinolin-3-yl)ethyl)amino)pyrido[2,3-d]pyrimidin-5(8H)-one]
44% | 32% | C[C@H](Nc1ncnc2[nH]ccc(=O)c12)c1c(Cl)c2cccc(S(=O)(=O)c3ccccn3)c2c(=O)n1-c1ccccc1 [Example 414, (S)-4-((1-(4-chloro-1-oxo-2-phenyl-8-(pyridin-2-ylsulfonyl)-1,2-dihydroisoquinolin-3-yl)ethyl)amino)pyrido[2,3-d]pyrimidin-5(8H)-one]
0% | 23% | CC(C)Sc1cccc2c(Cl)c([C@H](C)Nc3ncnc4[nH]ccc(=O)c34)n(-c3ccccc3)c(=O)c12 [Example 415, (S)-4-((1-(4-chloro-8-(isopropylthio)-1-oxo-2-phenyl-1,2-dihydroisoquinolin-3-yl)ethyl)amino)pyrido[2,3-d]pyrimidin-5(8H)-one]
13% | 52% | CC(C)S(=O)(=O)c1cccc2c(Cl)c([C@H](C)Nc3ncnc4[nH]ccc(=O)c34)n(-c3ccccc3)c(=O)c12 [Example 416, (S)-4-((1-(4-chloro-8-(isopropylsulfonyl)-1-oxo-2-phenyl-1,2-dihydroisoquinolin-3-yl)ethyl)amino)pyrido[2,3-d]pyrimidin-5(8H)-one]
26% | 48% | C[C@H](Nc1ncnc2[nH]ccc(=O)c12)c1c(Cl)c2cccc(Sc3nccs3)c2c(=O)n1-c1ccccc1 [Example 417, (S)-4-((1-(4-chloro-1-oxo-2-phenyl-8-(thiazol-2-ylthio)-1,2-dihydroisoquinolin-3-yl)ethyl)amino)pyrido[2,3-d]pyrimidin-5(8H)-one]
1% | 29% | C[C@H](Nc1ncnc2[nH]ccc(=O)c12)c1c(Cl)c2cccc(SC3COC3)c2c(=O)n1-c1ccccc1 [Example 418, (S)-4-((1-(4-chloro-8-(oxetan-3-ylthio)-1-oxo-2-phenyl-1,2-dihydroisoquinolin-3-yl)ethyl)amino)pyrido[2,3-d]pyrimidin-5(8H)-one]
7% | 47% | C[C@H](Nc1ncnc2[nH]ccc(=O)c12)c1c(Cl)c2cccc([S+]([O-])c3ncccn3)c2c(=O)n1-c1ccccc1 (stereo partly drawn) [Example 419, 4-(((1S)-1-(4-chloro-1-oxo-2-phenyl-8-(pyrimidin-2-ylsulfinyl)-1,2-dihydroisoquinolin-3-yl)ethyl)amino)pyrido[2,3-d]pyrimidin-5(8H)-one]
37% | 36% | C[C@H](Nc1ncnc2[nH]ccc(=O)c12)c1c(Cl)c2cccc(S(=O)(=O)c3ncccn3)c2c(=O)n1-c1ccccc1 [Example 420, (S)-4-((1-(4-chloro-1-oxo-2-phenyl-8-(pyrimidin-2-ylsulfonyl)-1,2-dihydroisoquinolin-3-yl)ethyl)amino)pyrido[2,3-d]pyrimidin-5(8H)-one]
9% | 7% | C[C@H](Nc1ncnc2[nH]ccc(=O)c12)c1c(Cl)c2cccc([S@](=N)(=O)c3ncccn3)c2c(=O)n1-c1ccccc1 [Example 421, 4-(((S)-1-(4-chloro-1-oxo-2-phenyl-8-((S)-pyrimidine-2-sulfonimidoyl)-1,2-dihydroisoquinolin-3-yl)ethyl)amino)pyrido[2,3-d]pyrimidin-5(8H)-one]
9% | 18% | C[C@H](Nc1ncnc2[nH]ccc(=O)c12)c1c(Cl)c2cccc([S@@](=N)(=O)c3ncccn3)c2c(=O)n1-c1ccccc1 [Example 422, 4-(((S)-1-(4-chloro-1-oxo-2-phenyl-8-((R)-pyrimidine-2-sulfonimidoyl)-1,2-dihydroisoquinolin-3-yl)ethyl)amino)pyrido[2,3-d]pyrimidin-5(8H)-one]
20% | 22% | C[C@H](Nc1ncnc2[nH]ccc(=O)c12)c1c(Cl)c2cccc(Sc3ncccn3)c2c(=O)n1-c1ccccc1 [Example 423, (S)-4-((1-(4-chloro-1-oxo-2-phenyl-8-(pyrimidin-2-ylthio)-1,2-dihydroisoquinolin-3-yl)ethyl)amino)pyrido[2,3-d]pyrimidin-5(8H)-one]
